Measured values: patent US20180327367A1, “MACROCYCLIC BROAD SPECTRUM ANTIBIOTICS” (priority 2015, published 2018)
In brackets after ≈: the same amount, converted by molar mass. Where two headings read alike, the source gives them in different places.

Legend:
[1] = system: Methicillin Resistant Staphylococcus aureus strain USA 300, NRS384; assay: Minimum inhibitory concentration, broth micro-dilution (CLSI), S. aureus; type: cell-based; details: Staphylococcus aureus, MRSA / NRS 384 / USA300, 22 h
Outline: (§1)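 Ten-point 2-fold series began at 4 μg/mL in protocol 2 and 0.5 μg/mL in protocol 3, in cation-adjusted MHB plus 0.002% Tween-80. Bacteria added to OD600 0.0005 final and incubated at 35° C for 22 hours per CLSI microdilution.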

[2] = system: Escherichia coli strain ATCC 25922; assay: Neutropenic thigh infection model; type: in vivo; details: neutropenic CD-1 mice, E. coli ATCC 25922, infusion 23 hours, 24 hours post infection, FIG. 1
Procedure: The ability of a compound to inhibit an infection of a bacterial pathogen can be measured using a murine neutropenic thigh infection model. The reduction of bacterial burden is a measure of antibacterial activity in vivo.
Jugular vein cannulated CD-1 mice were subjected to induced neutropenia (<100 cells/mm^3) by injecting 150 mg/kg and 100 mg/kg cyclophosphamide at day −5 and day −2 respectively. At day −1, saline was infused at […] for 12 hours using Harvard Apparatus PHD 2000 Infusion pumps. At day 0, mice were infected in the thigh muscle with 1×10^5 CFU/50 μL of Escherichia coli strain ATCC 25922. […]
At 24 hours post infection, bacterial burden in the thigh muscle was determined by plating the tissue homogenate in serial dilutions on blood agar plates.

[3] = target: T1, SpsB (Staphylococcus aureus signal peptidase) (Staphylococcus aureus, UniProt P0A070); assay: cell-based; type: biochemical; details: SpsB IC50, whole-cell S. aureus (USA300 background, overexpressing SpsB) as SpsB source; fluorogenic peptide substrate, kinetic read 30 min
T1 construct: This assay uses a suspension of Staphylococcus aureus cells as a source of SpsB instead of recombinant SpsB protein; endogenous in cells; host or cells: S. aureus, USA300 background, overexpressing SpsB (whole-cell suspension from frozen pellets)
Outline: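 Cleavage of an internally quenched (Dabcyl)βAla-KPAKAAE(Edans) peptide, added as 20 μM solution mixed 1:1 with cells, was followed for 30 min at 340/490 nm. SpsB came from a suspension of SpsB-overexpressing USA300 S. aureus in Tween-80-containing PBS buffer. Slopes plotted against 3-fold compound dilutions gave IC50.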

[4] = system: Escherichia coli MC4100 harboring the IMP4213 (E. coli IMP); assay: microbe, parasite or virus in culture; type: cell-based; details: Escherichia coli, 22 h
Outline: as §1

[5] = system: Escherichia coli ATCC 25922; assay: Minimum inhibitory concentration, broth micro-dilution (CLSI), E. coli; type: cell-based; details: Escherichia coli, ATCC25922, 22 h
[6] = MRSA USA 300 NRS384, 35° C., 22 hours, read-out: MIC (μg/mL) S. aureus
[7] = read-out: MIC (μg/mL) E. coli IMP, E. coli MC4100 IMP4213, increased outer-membrane permeability, 35° C., 22 hours
[8] = E. coli ATCC 25922, 35° C., 22 hours, read-out: MIC (μg/mL) E. coli
[9] = read-out: MIC (μg/mL) S. aureus, MRSA USA 300 NRS384, 35° C., 22 hours
[10] = read-out: MIC (μg/mL) E. coli, E. coli ATCC 25922, 35° C., 22 hours

T1 sequence (P0A070 whole entry): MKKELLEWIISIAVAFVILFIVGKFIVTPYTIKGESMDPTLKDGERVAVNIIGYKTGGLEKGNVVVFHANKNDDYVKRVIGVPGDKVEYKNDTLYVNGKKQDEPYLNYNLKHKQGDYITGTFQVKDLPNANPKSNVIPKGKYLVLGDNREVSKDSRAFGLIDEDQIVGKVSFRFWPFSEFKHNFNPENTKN

CCCCc1ccc(-c2ccc(C(=O)N[C@@H](CCCN)C(=O)N(C)[C@@H]3C(=O)N[C@@H](C)C(=O)N[C@H](C(=O)NCC#N)Cc4ccc(OCCN)c(c4)-c4cc3ccc4OCCN)cc2)cc1 [Compound 135]
MIC [1, 6]: 0.052 µg/mL (≈ 0.0586 µM) | bacterial burden in the thigh muscle [2]: dose-dependent reduction in bacterial burden | IC50 [3]: 0.54 nM | MIC [4, 7]: 0.023 µg/mL (≈ 0.0259 µM) | MIC [5, 8]: 0.22 µg/mL (≈ 0.248 µM)

CCCCCCCCc1ccc(C(=O)N[C@@H](CCCN)C(=O)N(C)[C@@H]2C(=O)N[C@@H](C)C(=O)N[C@H](C(=O)NCC#N)Cc3ccc(OC)c(c3)-c3cc2ccc3OC)c(OC)c1 [Compound 473]
MIC [1, 6]: 1.5 µg/mL (≈ 1.79 µM) | IC50 [3]: 39 nM | MIC [4, 7]: 0.25 µg/mL (≈ 0.298 µM) | MIC [5, 8]: > 64 µg/mL

CCCCCCCCCCCCCC(=O)N(C)[C@@H]1C(=O)N[C@@H](C)C(=O)N[C@H](C(=O)NCC#N)Cc2ccc(OCCN)c(c2)-c2cc1ccc2OCCN [Compound 475]
MIC [1, 6]: 1 µg/mL (≈ 1.34 µM) | IC50 [3]: 18 nM | MIC [4, 7]: 0.5 µg/mL (≈ 0.668 µM) | MIC [5, 8]: 6 µg/mL (≈ 8.02 µM)

CCCCCCCCc1ccc(C(=O)N(C)[C@@H]2C(=O)N[C@@H](C)C(=O)N[C@H](C(=O)NCC#N)Cc3ccc(OCCN)c(c3)-c3cc2ccc3OCCN)cc1 [Compound 476]
MIC [1, 6]: 2 µg/mL (≈ 2.65 µM) | IC50 [3]: 86 nM | MIC [4, 7]: 8 µg/mL (≈ 10.6 µM) | MIC [5, 8]: 32 µg/mL (≈ 42.4 µM)

CCCCc1ccc(-c2ccc(C(=O)N[C@@H](CC3CCNCC3)C(=O)N(C)[C@@H]3C(=O)N[C@@H](C)C(=O)N[C@H](C(=O)NCC#N)Cc4ccc(OCCN)c(c4)-c4cc3ccc4OCCN)cc2)cc1 [Compound 477]
MIC [1, 6]: 0.063 µg/mL (≈ 0.0679 µM) | IC50 [3]: 0.68 nM | MIC [4, 7]: 0.063 µg/mL (≈ 0.0679 µM) | MIC [5, 8]: 4 µg/mL (≈ 4.31 µM)

CCCCc1ccc(-c2ccc(C(=O)N[C@@H](Cc3c[nH]cn3)C(=O)N(C)[C@@H]3C(=O)N[C@@H](C)C(=O)N[C@H](C(=O)NCC#N)Cc4ccc(OCCN)c(c4)-c4cc3ccc4OCCN)cc2)cc1 [Compound 478]
MIC [1, 6]: 0.19 µg/mL (≈ 0.209 µM) | IC50 [3]: 1.5 nM | MIC [4, 7]: 0.19 µg/mL (≈ 0.209 µM) | MIC [5, 8]: 6 µg/mL (≈ 6.59 µM)

CCCCCCc1ccc(C(=O)N2C[C@@H](N)CC2C(=O)N(C)[C@@H]2C(=O)N[C@@H](C)C(=O)N[C@H](C(=O)NCC#N)Cc3ccc(OCCN)c(c3)-c3cc2ccc3OCCN)c(C)c1 (stereo partly shown) [Compound 480]
MIC [1, 6]: 0.19 µg/mL (≈ 0.223 µM) | IC50 [3]: 0.92 nM | MIC [4, 7]: 0.012 µg/mL (≈ 0.0141 µM) | MIC [5, 8]: 0.5 µg/mL (≈ 0.587 µM)

CCCCCCCCCCCCCC(=O)N1C[C@@H](N)CC1C(=O)N(C)[C@@H]1C(=O)N[C@@H](C)C(=O)N[C@H](C(=O)NCC#N)Cc2ccc(OCCN)c(c2)-c2cc1ccc2OCCN (stereo partly shown) [Compound 481]
MIC [1, 6]: 0.047 µg/mL (≈ 0.0546 µM) | IC50 [3]: 1.2 nM | MIC [4, 7]: 0.0078 µg/mL (≈ 0.00907 µM) | MIC [5, 8]: 0.25 µg/mL (≈ 0.291 µM)

C[C@@H]1NC(=O)[C@@H](N(C)C(=O)[C@H](CCCCN)NC(=O)c2ccc(-c3ccc(Cl)cc3)cc2)c2ccc(OCCN)c(c2)-c2cc(ccc2OCCN)C[C@@H](C(=O)NCC#N)NC1=O [Compound 482]
MIC [1, 9]: 0.13 µg/mL (≈ 0.148 µM) | IC50 [3]: 1.6 nM | MIC [4, 7]: 0.13 µg/mL (≈ 0.148 µM) | MIC [5, 10]: 16 µg/mL (≈ 18.2 µM)

C[C@@H]1NC(=O)[C@@H](N(C)C(=O)[C@H](CCCCN)NC(=O)c2ccc(-c3ccc(Cl)cc3)cc2)c2ccc(OCCN)c(c2)-c2cc(ccc2OCCN)C[C@@H](C(=O)N[C@@H](C)C#N)NC1=O [Compound 483]
MIC [1, 9]: 2 µg/mL (≈ 2.24 µM) | IC50 [3]: 6.8 nM | MIC [4, 7]: 0.5 µg/mL (≈ 0.559 µM) | MIC [5, 10]: 48 µg/mL (≈ 53.7 µM)

CCCCCCCCCCCC(=O)N[C@@H](C[C@@H]1CCCN1)C(=O)N(C)[C@@H]1C(=O)N[C@@H](C)C(=O)N[C@H](C(=O)NCC#N)Cc2ccc(OCCN)c(c2)-c2cc1ccc2OCCN [Compound 484]
MIC [1, 6]: 0.063 µg/mL (≈ 0.0732 µM) | IC50 [3]: 1 nM | MIC [4, 7]: 0.063 µg/mL (≈ 0.0732 µM) | MIC [5, 8]: 8 µg/mL (≈ 9.3 µM)

CCCCc1ccc(-c2ccc(C(=O)N[C@@H](CCCCN)C(=O)N(C)[C@@H]3C(=O)N[C@@H](C)C(=O)N[C@H](C(=O)NC4(C#N)CC4)Cc4ccc(OCCN)c(c4)-c4cc3ccc4OCCN)cc2)cc1 [Compound 494]
MIC [1, 6]: 1 µg/mL (≈ 1.08 µM) | IC50 [3]: 2.1 nM | MIC [4, 7]: 0.5 µg/mL (≈ 0.539 µM) | MIC [5, 8]: 16 µg/mL (≈ 17.2 µM)

CCCCc1ccc(-c2ccc(C(=O)N[C@@H](CCCCN)C(=O)N(C)[C@@H]3C(=O)N[C@@H](C)C(=O)N[C@H](C(=O)NC4(C#N)CC4)Cc4ccc(O)c(c4)-c4cc3ccc4OCCN)cc2)cc1 [Compound 495]
MIC [1, 6]: 3 µg/mL (≈ 3.39 µM) | IC50 [3]: 20 nM | MIC [4, 7]: 1 µg/mL (≈ 1.13 µM) | MIC [5, 8]: 16 µg/mL (≈ 18.1 µM)

CCCCc1ccc(-c2ccc(C(=O)N[C@@H](CCCCN)C(=O)N(C)[C@@H]3C(=O)N[C@@H](C)C(=O)N[C@H](C(=O)NC(C)(C)C#N)Cc4ccc(OCCN)c(c4)-c4cc3ccc4OCCN)cc2)cc1 [Compound 496]
MIC [1, 6]: 3 µg/mL (≈ 3.23 µM) | IC50 [3]: 17 nM | MIC [4, 7]: 0.5 µg/mL (≈ 0.538 µM) | MIC [5, 8]: 16 µg/mL (≈ 17.2 µM)

CCCCc1ccc(-c2ccc(C(=O)N[C@@H](CCCN)C(=O)N(C)[C@@H]3C(=O)N[C@@H](C)C(=O)N[C@H](C(=O)N4CC4C#N)Cc4ccc(OCCN)c(c4)-c4cc3ccc4OCCN)cc2)cc1 (stereo partly shown) [Compound 520]
MIC ([1]; read-out: MIC (μg/mL) S. aureus): 0.38 µg/mL (≈ 0.422 µM) | IC50 [3]: 0.73 nM | MIC ([4]; read-out: MIC (μg/mL) E. coli IMP): 0.19 µg/mL (≈ 0.211 µM) | MIC ([5]; read-out: MIC (μg/mL) E. coli): 6 µg/mL (≈ 6.67 µM)
